Drawing on US11572590B2, “Methods for evaluating tumor cell spheroids using 3D microfluidic cell culture device” (Dana-Farber Cancer Institute, Inc., priority 2017, dated 2023), this text covers inhibition for 1 compound.

Common to all, as to assay: SelectScreen Kinase Profiling, single point inhibition and IC50 for off-target kinases
What all share (type): biochemical

The target of assay [1] is off-target kinases (Homo sapiens, UniProt Q15418). The settings on record: RPS6KA1 (RSK1), ZLYTE, ATP Km app.
Sequence of off-target kinases (Homo sapiens, UniProt Q15418) (Q15418 whole entry): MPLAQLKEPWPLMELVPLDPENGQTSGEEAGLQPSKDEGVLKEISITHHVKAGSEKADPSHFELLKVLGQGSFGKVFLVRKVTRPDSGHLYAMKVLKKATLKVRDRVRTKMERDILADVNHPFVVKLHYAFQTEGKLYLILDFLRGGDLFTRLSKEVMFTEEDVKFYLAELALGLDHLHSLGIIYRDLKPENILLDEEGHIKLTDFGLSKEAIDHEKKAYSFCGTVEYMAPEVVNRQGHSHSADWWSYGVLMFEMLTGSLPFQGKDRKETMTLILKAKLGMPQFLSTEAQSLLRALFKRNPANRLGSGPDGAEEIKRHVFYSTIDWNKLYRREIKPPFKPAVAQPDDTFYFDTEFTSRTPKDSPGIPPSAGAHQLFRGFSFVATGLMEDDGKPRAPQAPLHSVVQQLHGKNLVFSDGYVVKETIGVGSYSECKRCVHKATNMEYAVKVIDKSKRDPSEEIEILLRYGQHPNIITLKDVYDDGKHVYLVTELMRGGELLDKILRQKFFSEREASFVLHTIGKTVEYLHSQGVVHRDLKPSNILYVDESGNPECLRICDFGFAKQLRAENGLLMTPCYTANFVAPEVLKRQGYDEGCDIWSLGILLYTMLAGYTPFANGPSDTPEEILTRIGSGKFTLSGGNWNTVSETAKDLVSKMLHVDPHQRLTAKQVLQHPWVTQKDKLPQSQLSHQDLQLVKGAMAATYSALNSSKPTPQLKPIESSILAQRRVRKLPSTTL
Assay [2] deals with off-target kinases (Homo sapiens, UniProt Q9P289). The settings on record: MST4, ZLYTE, ATP Km app.
Sequence of off-target kinases (Homo sapiens, UniProt Q9P289) (Q9P289 whole entry): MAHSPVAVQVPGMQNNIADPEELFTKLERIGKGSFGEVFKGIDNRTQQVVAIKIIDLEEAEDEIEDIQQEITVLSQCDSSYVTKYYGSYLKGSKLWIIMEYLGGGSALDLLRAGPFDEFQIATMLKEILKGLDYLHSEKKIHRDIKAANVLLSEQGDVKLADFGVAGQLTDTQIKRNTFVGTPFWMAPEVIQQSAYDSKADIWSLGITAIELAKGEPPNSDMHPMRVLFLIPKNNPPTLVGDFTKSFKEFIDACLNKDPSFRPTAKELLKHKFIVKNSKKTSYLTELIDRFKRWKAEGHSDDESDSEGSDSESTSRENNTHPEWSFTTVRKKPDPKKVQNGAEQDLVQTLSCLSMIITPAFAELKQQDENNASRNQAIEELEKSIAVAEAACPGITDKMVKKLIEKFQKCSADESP
Assay [3] concerns the target T1, off-target kinases (Homo sapiens, UniProt P43403).
T1 sequence (P43403 1-619): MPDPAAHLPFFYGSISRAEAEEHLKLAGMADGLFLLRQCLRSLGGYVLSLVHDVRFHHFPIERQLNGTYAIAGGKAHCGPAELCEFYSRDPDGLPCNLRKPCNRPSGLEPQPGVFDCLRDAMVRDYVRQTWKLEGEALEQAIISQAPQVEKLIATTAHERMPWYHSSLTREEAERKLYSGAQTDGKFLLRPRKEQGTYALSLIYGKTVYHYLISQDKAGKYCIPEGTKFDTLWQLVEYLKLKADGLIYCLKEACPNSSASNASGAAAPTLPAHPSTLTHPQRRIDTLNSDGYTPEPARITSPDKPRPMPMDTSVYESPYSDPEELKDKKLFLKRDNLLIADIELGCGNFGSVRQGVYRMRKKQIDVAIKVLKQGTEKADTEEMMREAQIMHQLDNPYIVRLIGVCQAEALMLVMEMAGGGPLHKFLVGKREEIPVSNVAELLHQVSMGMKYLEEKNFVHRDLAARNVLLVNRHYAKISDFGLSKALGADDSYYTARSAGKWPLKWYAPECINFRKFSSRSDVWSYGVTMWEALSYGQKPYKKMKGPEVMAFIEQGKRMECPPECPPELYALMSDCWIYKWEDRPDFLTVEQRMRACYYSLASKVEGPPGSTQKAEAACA
The settings on record: ZAP70, ZLYTE, ATP Km app.

In assay [4] the target is off-target kinases (Homo sapiens, UniProt Q7KZI7). Conditions: MARK2, ATP Km app, ZLYTE.
Sequence of off-target kinases (Homo sapiens, UniProt Q7KZI7) (Q7KZI7 whole entry): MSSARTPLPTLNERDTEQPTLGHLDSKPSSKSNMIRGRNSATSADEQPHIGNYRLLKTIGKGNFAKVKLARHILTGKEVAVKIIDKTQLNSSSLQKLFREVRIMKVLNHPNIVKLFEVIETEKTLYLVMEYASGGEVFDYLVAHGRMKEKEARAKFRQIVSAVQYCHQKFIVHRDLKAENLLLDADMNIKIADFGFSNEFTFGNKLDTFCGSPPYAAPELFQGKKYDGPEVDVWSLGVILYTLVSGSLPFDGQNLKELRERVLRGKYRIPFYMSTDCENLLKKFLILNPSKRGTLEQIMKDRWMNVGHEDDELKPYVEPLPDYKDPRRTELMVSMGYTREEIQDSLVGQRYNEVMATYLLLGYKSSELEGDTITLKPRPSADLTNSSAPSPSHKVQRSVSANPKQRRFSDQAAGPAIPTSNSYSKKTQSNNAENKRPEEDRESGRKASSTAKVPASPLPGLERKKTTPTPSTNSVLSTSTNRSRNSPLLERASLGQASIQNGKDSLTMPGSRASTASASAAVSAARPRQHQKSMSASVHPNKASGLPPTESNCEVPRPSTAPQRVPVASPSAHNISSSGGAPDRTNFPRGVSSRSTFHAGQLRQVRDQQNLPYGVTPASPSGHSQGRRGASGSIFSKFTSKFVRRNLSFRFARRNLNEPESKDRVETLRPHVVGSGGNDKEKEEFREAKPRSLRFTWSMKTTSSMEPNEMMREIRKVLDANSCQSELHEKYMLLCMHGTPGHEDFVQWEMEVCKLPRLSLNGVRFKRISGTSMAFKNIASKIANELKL
Assay [5] has as its target T2, off-target kinases (Homo sapiens, UniProt Q9BZL6).
T2 sequence (Q9BZL6 1-878): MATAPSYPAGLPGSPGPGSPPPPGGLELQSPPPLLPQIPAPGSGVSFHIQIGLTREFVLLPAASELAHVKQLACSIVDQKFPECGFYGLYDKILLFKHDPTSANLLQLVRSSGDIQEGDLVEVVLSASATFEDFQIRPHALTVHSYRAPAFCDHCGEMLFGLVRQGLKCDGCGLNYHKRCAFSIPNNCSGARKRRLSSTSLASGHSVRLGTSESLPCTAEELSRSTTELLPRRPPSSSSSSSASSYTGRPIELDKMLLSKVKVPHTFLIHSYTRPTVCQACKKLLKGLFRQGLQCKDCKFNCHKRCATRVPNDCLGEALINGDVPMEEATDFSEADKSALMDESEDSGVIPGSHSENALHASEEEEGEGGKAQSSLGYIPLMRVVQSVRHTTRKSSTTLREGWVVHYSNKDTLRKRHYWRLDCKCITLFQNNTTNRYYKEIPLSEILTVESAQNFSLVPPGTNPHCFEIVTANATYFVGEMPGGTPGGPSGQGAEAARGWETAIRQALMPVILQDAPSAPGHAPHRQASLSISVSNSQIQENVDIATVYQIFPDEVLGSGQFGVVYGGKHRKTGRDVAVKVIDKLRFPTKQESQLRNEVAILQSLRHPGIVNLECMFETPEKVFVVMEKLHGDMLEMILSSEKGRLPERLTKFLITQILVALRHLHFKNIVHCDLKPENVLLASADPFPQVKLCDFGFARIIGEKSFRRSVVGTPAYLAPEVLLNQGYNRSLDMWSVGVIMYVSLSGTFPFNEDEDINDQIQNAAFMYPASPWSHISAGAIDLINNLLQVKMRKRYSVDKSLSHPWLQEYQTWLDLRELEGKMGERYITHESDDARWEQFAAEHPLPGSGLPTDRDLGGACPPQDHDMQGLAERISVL
The settings on record: PRKD2 (PKD2), ATP Km app, ZLYTE.

Broadly, the inhibition is the percentage by which the read-out fell short of the control.

Where two headings read alike, the source gives them in different places.

Turning to `N#Cc1cc(-c2ncnc(Nc3ccc(N4CCN(C5COC5)CC4)cc3)n2)ccc1OC1CCOCC1` [Compound 1, 5-(4-((4-(4-(oxetan-3-yl)piperazin-1-yl)phenyl)amino)-1,3,5-triazin-2-yl)-2-((tetrahydro-2H-pyran-4-yl)oxy)benzonitrile], the inhibition on off-target kinases [1] (read-out: % Inhibition 1) is 15%; on off-target kinases [1] (read-out: % Inhibition 2), 11%; at off-target kinases [1] (read-out: % Inhibition Avg) it was 13%; on off-target kinases [2] (read-out: % Inhibition 1), 2%; on off-target kinases [2] (read-out: % Inhibition 2), 3%; at off-target kinases [2] (read-out: % Inhibition Avg), 2%. The inhibition at off-target kinases [3] (read-out: % Inhibition 1) was found to be 4%; on off-target kinases [3] (read-out: % Inhibition 2) it was 4%; on off-target kinases [3] (read-out: % Inhibition Avg), 4%; at off-target kinases [4] (read-out: % Inhibition 1), 86%; at off-target kinases [4] (read-out: % Inhibition 2), 82%; on off-target kinases [4] (read-out: % Inhibition Avg), 84%. In addition, the inhibition is 99% at off-target kinases [5] (read-out: % Inhibition 1), 97% on off-target kinases [5] (read-out: % Inhibition 2) and 98% on off-target kinases [5] (read-out: % Inhibition Avg).
